Data from patent US8236339B2, “Therapeutic delivery of carbon monoxide” (priority 2001, dated 2012).
Marks after values point to notes of the source that are not given here.

What was measured:
[1] = test system: aortic rings pre-contracted with phenylephrine; assay: Relaxation of isolated aortic rings pre-contracted with phenylephrine; design: species or system rat
Protocol: Transverse ring sections of thoracic aorta were isolated from male Lewis rats and suspended under a 2 g tension in an organ bath containing oxygenated Krebs-Henseleit buffer at 37° C. as previously described (23). The relaxation response to cumulative doses of metal carbonyl (dissolved in DMSO—see section 2) was assessed in aortic rings pre-contracted with phenylephrine (3 μM). Control rings were similarly treated by adding equal doses of DMSO (vehicle) to the organ bath.

[2] = Cardiac transplant rejection, BALB/c hearts into CBA mice; format: in vivo, mouse; details: 40 mg/kg i.p. doses
Protocol: Hearts from male BALB/c mouse (25-30 g) were used as donor organs for transplantation into male CBA mice (25-30 g). Mice were housed in groups of 3 in cages under a 12 h cycle of day/night, with free access to drinking water and fed ad libitum. All surgical procedures were performed in compliance with U.K. Home Office regulations. Animals were anaesthetized by an intraperitoneal injection of ketamine/xylazine during all procedures. The surgical technique involved the transplantation of the cardiac allograft into the recipient's neck as previously described (51). Graft survival was assessed daily by palpation, and rejection was diagnosed by cessation of ventricular contractions.
Ru(CO)3Cl(glycinato) was dissolved in 0.1 ml saline and administered intraperitoneally. All doses are 40 mg/kg of Ru(CO)3Cl(glycinato). The donors received two doses of Ru(CO)3Cl(glycinato) respectively at 1 day and 15 min prior to cardiac harvest. The recipients received doses of Ru(CO)3Cl(glycinato) at 1 day before surgery, 30 min prior to cardiac reperfusion and 1 h after transplantation (Day 0). Thereafter, graft recipients received a daily dose of Ru(CO)3Cl(glycinato) from day 1 to day 8(inclusive) post-transplant. In the control group, recipients received an equivalent dose of saline (vehicle) 1 day before and each day (days 1 to 8) after cardiac transplantation. Carprofen (0.01 mg) was given subcutaneously for pain relief immediately after transplantation to all animals. The results of this study are shown in FIG. 10. n=5 for each group. *p<0.002 vs. control. BALE/c hearts transplanted into CBA mice following treatment with saline (control group) underwent rejection'very rapidly. 100% of hearts stopped beating within 9 days of transplantation.

[3] = Systemic blood pressure and heart rate in anaesthetised Sprague-Dawley rats; format: in vivo, rat
Protocol: Adult male Sprague-Dawley rats (280-350 g, 8-10 weeks of age) were bred in-house at the Northwick Park Institute for Medical Research (Harrow, UK). Rats were housed in groups of 3 in cages under a 12 h cycle of day/night, with free access to drinking water and fed ad libitum. All surgical procedures were performed in compliance with U.K. Home Office regulations. Rats were anaesthetised in a polycarbonate chamber in a stream of Enflurane™ (Abbot, UK) in oxygen before being transferred onto a mask and continuously supplied with Enflurane™ throughout the experiment with an anaesthetic machine (Aimed, UK). During the surgical procedure the rats were kept at a constant body temperature of 37° C. using a heat pad positioned underneath the operating surface. Specially designed femoral artery and venous catheters were then surgically implanted as previously described (see ref. 40). The catheter in the artery was connected via a luer connector and a three-way tap to a pressure transducer (Gould model P23ID, Statham, USA) for continuous mean arterial pressure (MAP) and heart rate (HR) monitoring. A purpose-built tail-cuff pressure transducer (ADInstruments, UK) was also placed on the tail of the rat and pressure transducer and tail cuff were connected to a polygraph recorder (Grass, Model 7D, Astra-med, UK) pre-calibrated in millimeters of mercury (mmHg). An analogue output provided data for a computer-based data acquisition system (PowerLab™, ADInstruments, UK). The computer-based system was set to record mean arterial pressure (MAP), in mmHg, and heart rate (HR), in beats/min (bpm), for the duration of the experiment. […] Once a stable pressure had been reached, each catheter was flushed with saline containing heparin and no further changes were made to the anaesthetic supply. Ru(CO)3Cl(glycinato) (CO-RM-3) was prepared in stock solutions of 20, 60 and 120 μmoles·ml^−1 by solubilizing the compound in saline. […] CO-RM-3 (or the negative control) was then infused into the animal via the femoral vein catheter as a bolus so that the final concentration infused was 10, 30 or 60 μmoles·kg^−1 body weight. Throughout the experiment MAP and HR were continuously recorded and monitored. Although concentrations of 10, 30 and 60 μmoles·kg^−1 were infused into each animal, the resulting concentrations in the animal were cumulative. Therefore, the final concentration attained in the animal was 10, 40 and 100 μmoles·kg^−1, respectively.
The results are presented in Table 2, where the data shown represents samples taken at baseline (just before infusion of the compound) and directly after administration of 10, 30 and 60 μmoles·kg^−1 of the compound. All data are mean i SEM. n=3 independent experiments. *P<0.05 vs. baseline.

RAW 264.7 macrophages [4] = assay: Nitrite (NO) production in LPS-stimulated macrophages, Griess reagent method; format: cell-based, mouse; details: 10, 50 and 100 μM, 24 h with LPS 3 μg/ml
From the text: Control cells were exposed to culture medium alone.

RAW 264.7 macrophages [5] = details: 24 h, LPS 3 μg/ml with or without CO-RM-3 10, 50 and 100 μM
Protocol: Mouse RAW 264.7 macrophages were cultured in 24 wells using DMEM medium Confluent cells were incubated for 24 h with E. Coli lipopolysaccharide (LPS, 3 μg/ml) in the presence or absence of increasing concentrations of CO-RM-3 (10, 50 and 100 μM). Control cells were exposed to culture medium alone. […] Cell viability was also assessed in macrophages 24 h after treatment with the various agents as described in reference 47.

[6] = test system: deoxymyoglobin (deoxy-Mb); assay: Myoglobin assay: conversion of deoxy-Mb to MbCO on direct addition of metal carbonyl; format: biochemical, horse; details: direct addition to myoglobin solution (66 μM), no light
Protocol: The release of CO from metal carbonyl complexes was assessed spectrophotometrically by measuring the conversion of deoxymyoglobin (deoxy-Mb) to carbonmonoxy myoglobin (MbCO). MbCO has a distinctive absorption spectrum between 500 and 600 nm, and changes at 540 nm were used to quantify the amount of CO liberated. Myoglobin solutions (66 μM final concentration) were prepared freshly by dissolving the protein in 0.04 M phosphate buffer (pH 6.8). Sodium dithionite (0.1%) was added to convert myoglobin to deoxy-Mb prior to each reading. All the spectra were measured using a Helios a spectrophotometer.
Various metal carbonyl complexes were tested for their ability to elicit MbCO formation when added directly to a deoxy-Mb solution. To different extents, [Ru(CO)3Cl2]2, [Ru(CO)2(DMSO)2Cl2], [Ru(CO)3Cl2(cytosine)] and […] all released CO when added directly to the Mb solution.
The metal carbonyl complex was solubilized in DMSO (9.7 mM stock solution), aliquots of 2 to 32 μl were added directly to 1 ml of deoxy-Mb solutions (66 μM) and absorption spectrum determined immediately after mixing the samples by inversion.

[7] = cumulative doses, phenylephrine 3 μM
[8] = directly after i.v. bolus 10 μmol/kg
[9] = directly after i.v. bolus 30 μmol/kg (cumulative 40)

NCC(=O)O.[C-]#[O+].[C-]#[O+].[C-]#[O+].[Cl][Ru] [CO-RM-3, Ru(CO)3Cl (NH2CH2CO2)]
vasodilatory effect on pre-contracted aortic rings (in words) ([1]; consecutive additions): elicited significant vasodilatation | % Relaxation, 1st addition [1, 7]: 36% | % Relaxation, 2nd addition [1, 7]: 66.6% | % Relaxation, 3rd addition [1, 7]: 68.3% | survival time of transplanted hearts (in words) ([2]; vs. saline control): significantly prolonged | hearts still beating ([2]; 18 days after transplantation): 100% | mice without any sign of rejection ([2]; 25 days after heart transplantation): 60% | transplanted hearts still viable ([2]; at 30 days): 40% | transient decrease in MAP ([3]; 10 μmoles·kg^−1 bolus infusion): 6±2 mmHg | transient decrease in MAP ([3]; 30 μmoles·kg^−1 bolus infusion): 8±3 mmHg | transient decrease in MAP ([3]; 60 μmoles·kg^−1 bolus infusion): 14±0.3 mmHg | effects on HR or MAP (in words) ([3]; 10, 30 or 60 μmoles·kg^−1): concentration-dependent transient decrease in MAP | period of return of MAP to baseline ([3]; after bolus infusion): 10 min | HR, 10 μmol.kg^−1 [3, 8]: 276 ± 20 bpm | MAP, 10 μmol.kg^−1 [3, 8]: 73 ± 2 mmHg | HR, 30 μmol.kg^−1 [3, 9]: 261 ± 22 bpm | MAP, 30 μmol.kg^−1 [3, 9]: 72 ± 7 mmHg | MAP, 60 μmol.kg^−1 ([3]; directly after i.v. bolus 60 μmol/kg (cumulative 100)): 65 ± 4* mmHg | HR, 60 μmol.kg^−1 ([3]; directly after i.v. bolus 60 μmol/kg (cumulative 100), listed as Ru(CO)3Cl(glycinate)): 253 ± 23 bpm | HR, 60 μmol.kg^−1 ([3]; directly after i.v. bolus 60 μmol/kg (cumulative 100), listed as Ru(CO)3Cl(glycinato)): 253±23 bpm | MAP, Baseline ([3]; just before infusion of the compound): 79 ± 2 mmHg | HR, Baseline ([3]; just before infusion of the compound, listed as Ru(CO)3Cl(glycinate)): 270 ± 20 bpm | HR, Baseline ([3]; just before infusion of the compound, listed as Ru(CO)3Cl(glycinato)): 270±20 bpm | nitrite generation in LPS-stimulated macrophages (RAW 264.7 macrophages [4]): significantly attenuated nitrite generation in a concentration dependent manner | cell viability of macrophages (RAW 264.7 macrophages [5]): did not affect cell viability | MbCO formation / CO release when added directly to deoxy-Mb solution ([6]; listed as [Bu(CO)3(glycinate)Cl]): released CO | MbCO formation / CO release when added directly to deoxy-Mb solution ([6]; listed as [Ru(CO)3(glycinato)Cl]): high release of CO
